The values below come from ChEMBL document CHEMBL4483862, “Open-source discovery of chemical leads for next-generation chemoprotective antimalarials” (2018).

The test has as its system Plasmodium berghei. Nature of the test: Luciferase/luciferin-expressing antifolate-resistant parasites were used to infect a culture of HepG2 cells that were pre-incubated with compounds. Infected hepatocytes emit light due to the luciferase reaction. Assay results are presented as the percent inhibition of light emission compared to control. […]. It counts as functional. As to conditions: sporozoite; for IC90: read-out: LUCIFERASE INFECTION ASSAY - IC90.

Setting [1] is: PBLUC_HILL_SLOPE 22.1, PBLUC_R_SQUARED 0.617, read-out: LUCIFERASE INFECTION ASSAY - IC50.

Broadly, the IC50 is the point on the concentration scale where inhibition reaches its midpoint. Usually IC90 stands for the concentration at which the effect reaches the 90% level. Regarding `CCCCn1c(=O)[nH]c(=O)c2c1nc(-c1ccc(C)c([N+](=O)[O-])c1)n2CC`, the concentration for an effect of 90% (IC90) amounted to 3.73 µM. Also, the IC50 (PBLUC_HILL_SLOPE 20.6, PBLUC_R_SQUARED 0.559, read-out: LUCIFERASE INFECTION ASSAY - IC50) stood at 3.35 µM.

Regarding `NC(c1csc(NC(=O)Nc2cccc(C(F)(F)F)c2)n1)C1CCCCC1` (configuration not stated), the IC90 came out at 6.65 µM. The half-maximal inhibitory concentration (IC50) (PBLUC_HILL_SLOPE 23.3, PBLUC_R_SQUARED 0.126, read-out: LUCIFERASE INFECTION ASSAY - IC50) was 6.05 µM.

With `Cc1ccc(-c2nn(-c3ccccc3)cc2/C=C/C(=O)NC2CCN(Cc3ccccc3)CC2)cc1`, the concentration for an effect of 90% (IC90) was 9.38 µM. Further, where the note is “PBLUC_HILL_SLOPE 22.5, 12.9, PBLUC_R_SQUARED 0.0358, 0.549, read-out: LUCIFERASE INFECTION ASSAY - IC50”, the half-maximal inhibitory concentration (IC50) is 8.22 µM.

For the compound `CC(C)(C)c1cc(C(=O)Nc2nc(C(N)c3ccccc3Cl)cs2)n(Cc2ccccc2)n1` (configuration not stated), the 90% effect concentration (IC90) was 6.37 µM. The half-inhibitory concentration (IC50) (PBLUC_HILL_SLOPE 22.9, PBLUC_R_SQUARED 0.71, read-out: LUCIFERASE INFECTION ASSAY - IC50) was 5.79 µM.

For the compound `COc1cncc(-c2cncc(Nc3cccc(Cl)c3)c2)c1`, the IC90 worked out at 9.85 µM. The 50% inhibitory concentration (IC50) (PBLUC_HILL_SLOPE 20.7, PBLUC_R_SQUARED 0.436, read-out: LUCIFERASE INFECTION ASSAY - IC50) amounted to 8.86 µM.

Turning to `CN1\C(=C/C=N/N=C/C2=C(N3CCOCC3)C(=C\c3ccc([N+](=O)[O-])cc3)/CC2)C(C)(C)c2ccccc21`, the IC90 was 9.46 µM. In addition, the IC50 (PBLUC_HILL_SLOPE 22.4, PBLUC_R_SQUARED 0.296, read-out: LUCIFERASE INFECTION ASSAY - IC50) worked out at 8.58 µM.

On to `Cc1nc(C(C)(C)C)nc2sc(C(=O)N(C)CC(=O)Nc3cccc(F)c3)c(C)c12`, for which the 90% effect concentration (IC90) is 3.71 µM. The 50% inhibitory concentration (IC50) (PBLUC_HILL_SLOPE 21.5, PBLUC_R_SQUARED 0.514, read-out: LUCIFERASE INFECTION ASSAY - IC50) was 3.35 µM.

On to `COc1cc(OC)c(NC(=O)c2cc3ccccc3cc2OCC(=O)NCc2ccco2)cc1Cl`, for which the IC90 is more than 10 µM. In addition, the IC50 under setting [1] stood at 9.17 µM.

Take `CN1CCCN(c2ncnc3cc(-c4ccc(Cl)cc4)sc23)CC1`: the IC90 is more than 10 µM. Besides, under “PBLUC_HILL_SLOPE 23.2, PBLUC_R_SQUARED 0.558, read-out: LUCIFERASE INFECTION ASSAY - IC50”, the IC50 came to 9.79 µM.

Turning to `O=C(Nc1ccn(-c2ccccc2)n1)c1cc(-c2ccccc2)nc2ccccc12`, the concentration for an effect of 90% (IC90) was more than 10 µM. Also, the IC50 (PBLUC_HILL_SLOPE 22.3, 9.62, PBLUC_R_SQUARED 0.228, 0.621, read-out: LUCIFERASE INFECTION ASSAY - IC50) is 9.46 µM.

For the compound `Cc1c(C(=O)Nc2ccccc2O)cnn1-c1cccc(C(F)(F)F)c1`, the IC90 amounted to 3.64 µM. Under “PBLUC_HILL_SLOPE 22.3, PBLUC_R_SQUARED 0.482, read-out: LUCIFERASE INFECTION ASSAY - IC50”, the half-inhibitory concentration (IC50) worked out at 3.29 µM.

Regarding `Cc1nn(-c2ccccn2)c2c1C(c1ccccc1Cl)C1=C(N2)c2ccccc2C1=O` (configuration not stated), the IC90 is more than 10 µM. In addition, the concentration for half-maximal inhibition (IC50) under setting [1] is 9.17 µM.

Take `O=c1c(Cl)c(Cl)cnn1-c1ccc(S(=O)(=O)NCCc2ccc3c(c2)OCCO3)cc1`: the concentration for an effect of 90% (IC90) is more than 10 µM. The half-inhibitory concentration (IC50) (PBLUC_HILL_SLOPE 21.5, PBLUC_R_SQUARED 0.289, read-out: LUCIFERASE INFECTION ASSAY - IC50) was determined as 9.64 µM.

Consider `NC(=O)c1ccc(-c2cc(-c3ccccc3Oc3ccccc3)cnc2N)cc1`, for which the concentration for an effect of 90% (IC90) worked out at 2.98 µM. Further, the IC50 (PBLUC_HILL_SLOPE 21, PBLUC_R_SQUARED 0.292, read-out: LUCIFERASE INFECTION ASSAY - IC50) is 2.68 µM.

As to `CC(Nc1ccnc2cc(Cl)ccc12)c1ccccc1Cl` (configuration not stated), the IC90 was determined as 3.6 µM. The 50% inhibitory concentration (IC50) (PBLUC_HILL_SLOPE 22.7, PBLUC_R_SQUARED 0.0753, read-out: LUCIFERASE INFECTION ASSAY - IC50) came out at 3.27 µM.

`COc1ccc(-c2cnc3cnc(-c4ccc(C(=O)NC5CC5)cc4)cn23)cn1`: the IC90 is more than 8.56 µM. The IC50 (PBLUC_HILL_SLOPE 21.9, PBLUC_R_SQUARED 0.538, read-out: LUCIFERASE INFECTION ASSAY - IC50) was 7.8 µM.

`Cc1ccc(-c2nc3c(s2)CN(C(=O)c2ccco2)CC3)cc1`: the concentration for an effect of 90% (IC90) was 3.19 µM. Also, where the note is “PBLUC_HILL_SLOPE 23.5, PBLUC_R_SQUARED 0.61, read-out: LUCIFERASE INFECTION ASSAY - IC50”, the IC50 stood at 2.9 µM.

As for `CC(OC(=O)c1cccc(NC(=O)c2cccs2)c1)C(=O)C12CC3CC(CC(C3)C1)C2` (configuration not stated), the concentration for an effect of 90% (IC90) was 3.57 µM. In addition, where the note is “PBLUC_HILL_SLOPE 20.8, PBLUC_R_SQUARED 0.61, read-out: LUCIFERASE INFECTION ASSAY - IC50”, the 50% inhibitory concentration (IC50) was 3.22 µM.

As for `COc1ccccc1Oc1ccc(NC(C)C(=O)N2CCCC2)cc1` (configuration not stated), the IC90 was more than 10 µM. In addition, under “PBLUC_HILL_SLOPE 21.7, PBLUC_R_SQUARED 0.137, read-out: LUCIFERASE INFECTION ASSAY - IC50”, the IC50 is 9.85 µM.

As to `C/C(=N\NC(=S)Nc1cccc(C(F)(F)F)c1)c1cc(Cl)cc(Cl)c1O`, the IC90 was more than 7.82 µM. In addition, the concentration for half-maximal inhibition (IC50) (PBLUC_HILL_SLOPE 20.9, PBLUC_R_SQUARED 0.295, read-out: LUCIFERASE INFECTION ASSAY - IC50) stood at 7.78 µM.

Take `O=C(Cc1cn(-c2ccccc2)nc1-c1ccc(Cl)cc1)NCc1ccc(Cn2ccnc2)cc1`: the IC90 was more than 10 µM. Where the note is “PBLUC_HILL_SLOPE 23, PBLUC_R_SQUARED 0.395, read-out: LUCIFERASE INFECTION ASSAY - IC50”, the IC50 turned out to be 9.71 µM.

Consider `CC(C)(C)c1ccccc1NC(=O)c1csc(N2CCN(CCc3ccccc3)C2=O)n1`, for which the IC90 was more than 10 µM. The IC50 (PBLUC_HILL_SLOPE 20.4, PBLUC_R_SQUARED 0.59, read-out: LUCIFERASE INFECTION ASSAY - IC50) came out at 9.01 µM.

In the case of `CC(OC(=O)c1ccccc1Nc1ccc(F)cc1)C(=O)N1CCCC1` (configuration not stated), the IC90 amounted to 9.97 µM. Further, for the setting “PBLUC_HILL_SLOPE 20.8, 17.7, PBLUC_R_SQUARED 0.125, 0.439, read-out: LUCIFERASE INFECTION ASSAY - IC50”, the IC50 worked out at 8.95 µM.

With `CC(C)(C)c1ccc(-c2cnc3cnc(-c4ccc(C(=O)NCCO)cc4)cn23)cc1`, the concentration for an effect of 90% (IC90) is more than 7.96 µM. Also, the half-inhibitory concentration (IC50) (PBLUC_HILL_SLOPE 23.2, PBLUC_R_SQUARED 0.508, read-out: LUCIFERASE INFECTION ASSAY - IC50) is 7.27 µM.

With `CC(C)N(C(=O)COC(=O)c1ccccc1-c1nc2ccccc2s1)c1ccccc1`, the IC90 is more than 10 µM. The 50% inhibitory concentration (IC50) (PBLUC_HILL_SLOPE 20.1, PBLUC_R_SQUARED 0.325, read-out: LUCIFERASE INFECTION ASSAY - IC50) worked out at 9.13 µM.

In the case of `O=C(c1cccc2ccccc12)N(c1ccc(F)cc1)c1nc2ccccc2s1`, the IC90 was more than 10 µM. Further, the IC50 (PBLUC_HILL_SLOPE 22.2, PBLUC_R_SQUARED 0.211, read-out: LUCIFERASE INFECTION ASSAY - IC50) was 9.18 µM.

Regarding `CCOc1ccc2nc(N/N=C3/C(=O)N(c4ccccc4)N=C3C)sc2c1`, the IC90 stood at 9.42 µM. The IC50 (PBLUC_HILL_SLOPE 22.7, PBLUC_R_SQUARED 0.625, read-out: LUCIFERASE INFECTION ASSAY - IC50) was 8.55 µM.

As for `CC/N=c1\scc(-c2ccc(Cl)cc2)n1/N=C/c1ccc[nH]1`, the IC90 turned out to be 0.416 µM. In addition, the IC50 (PBLUC_HILL_SLOPE 20.7, PBLUC_R_SQUARED 0.413, read-out: LUCIFERASE INFECTION ASSAY - IC50) turned out to be 0.374 µM.

With `COc1cc(NC(=O)Nc2ccc3nc(Cc4ccccc4)nn3c2)cc(OC)c1OC`, the IC90 is 4.31 µM. Further, where the note is “PBLUC_HILL_SLOPE 20.6, PBLUC_R_SQUARED 0.32, read-out: LUCIFERASE INFECTION ASSAY - IC50”, the half-inhibitory concentration (IC50) is 3.87 µM.

As to `Cc1csc(NC(=O)c2ccc3[nH]c4c(c3c2)CC(C)CC4)n1` (configuration not stated), the IC90 is more than 10 µM. Besides, the concentration for half-maximal inhibition (IC50) (PBLUC_HILL_SLOPE 21.4, PBLUC_R_SQUARED 0.315, read-out: LUCIFERASE INFECTION ASSAY - IC50) was 9.45 µM.

As for `Cc1ccc(Cn2cc(/C=C/C(=O)Nc3ccn(C)n3)c(-c3ccccc3)n2)cc1`, the IC90 was found to be 5.35 µM. Moreover, where the note is “PBLUC_HILL_SLOPE 23.0, 1.63, PBLUC_R_SQUARED 0.221, 0.716, read-out: LUCIFERASE INFECTION ASSAY - IC50”, the IC50 stood at 5.32 µM.

For the compound `COc1ccccc1CNC(=O)Nc1nc(C(N)Cc2ccc(C(F)(F)F)cc2)cs1` (configuration not stated), the 90% effect concentration (IC90) stood at 7.12 µM. Besides, the concentration for half-maximal inhibition (IC50) (PBLUC_HILL_SLOPE 20.8, PBLUC_R_SQUARED 0.198, read-out: LUCIFERASE INFECTION ASSAY - IC50) stood at 6.4 µM.

For `CNc1snc(C)c1C(=O)OCc1coc(-c2cccs2)n1`, the IC90 is 0.0184 µM. The IC50 (PBLUC_HILL_SLOPE 23.3, PBLUC_R_SQUARED 0.377, read-out: LUCIFERASE INFECTION ASSAY - IC50) turned out to be 0.0168 µM.

Take `O=C(CSCc1cccs1)Nc1nc(-c2ccccn2)cs1`: the 90% effect concentration (IC90) was determined as 9.38 µM. Moreover, the half-inhibitory concentration (IC50) (PBLUC_HILL_SLOPE 22, PBLUC_R_SQUARED 0.337, read-out: LUCIFERASE INFECTION ASSAY - IC50) came to 8.49 µM.

Regarding `COc1ccc(OC)c(NC(=O)Nc2ccc(OC(F)(F)F)cc2)c1`, the IC90 is more than 9.26 µM. The IC50 (PBLUC_HILL_SLOPE 22.3, PBLUC_R_SQUARED 0.0229, read-out: LUCIFERASE INFECTION ASSAY - IC50) is 9.07 µM.

With `CC1CN(Cc2csc(Nc3ccccc3)n2)CC(C)O1` (configuration not stated), the IC90 was determined as 9.23 µM. Moreover, the IC50 (PBLUC_HILL_SLOPE 20.5, 3.85, PBLUC_R_SQUARED 0.234, 0.496, read-out: LUCIFERASE INFECTION ASSAY - IC50) worked out at 7.33 µM.
